These results are taken from US7132419B2, “Pharmaceutical compounds” (Xenova Limited, priority 2000, dated 2006).

What is called IC50 is the midpoint of a concentration-inhibition curve.

The test system of data set [1] is COR-L23 parental (COR-L23/P) human non-small cell lung carcinoma cell line. In words: Cytotoxicity, COR-L23 parental cell line (SRB assay). Type of data set: cell-based. Conditions: concentration required to give 50% cell kill, 5–6 days incubation. Here is the method: (§1) The cytotoxicity of the compounds described herein was also measured using the COR-L23 parental (COR-L23/P) human non-small cell lung carcinoma cell line and also the drug resistant human non-small cell lung carcinoma cell line COR-L23/R which overexpresses multidrug resistance associated protein (MRP). The cytotoxicity, as measured by the IC50 (concentration required to give 50% cell kill) in the L23/R cell line divided by the cytotoxicity in the L23/P cell line gives an indication of the degree to which a compound may be affected by MRP-dependant MDR and is termed the resistance factor (Rf) of the compound.
(§2) L23/P and L23/R cells were pipetted into 96-well tissue culture plates and then allowed to incubate at 37° C. for 4 h. […] The plates were incubated for 5–6 days before proliferation was assessed using the sulphurhodamine B (SRB) assay as described by Skehan et al, J Natl Cancer Inst 1990, 82, pp 1107–1112.
(Sulforhodamine B stains cellular protein and so reports cell mass.)

Data set [2] relates to drug resistant human small cell lung carcinoma cell line H69/LX4 which overexpresses P-glycoprotein (Pgp). Description: Cytotoxicity, drug resistant H69/LX4 cell line (AlamarBlue). The format is cell-based. The following applies: for Rf (resistance factor): IC50 in H69/LX4 divided by IC50 in H69/P, Pgp-dependent MDR; for IC50: concentration required to give 50% cell kill, 5–6 days incubation. As to the method: (§3) The cytotoxicity of compounds of formula (I) was measured using the H69 parental (H69/P) human small cell lung carcinoma cell line and the drug resistant human small cell lung carcinoma cell line H69/LX4 which overexpresses P-glycoprotein (Pgp). The cytotoxicity, as measured by the IC50 (concentration required to give 50% cell kill) in the H69/LX4 cell line divided by the cytotoxicity in the H69/P cell line gives an indication of the degree to which a compound is affected by Pgp-dependent MDR and is termed the resistance factor (Rf) of the compound.
(§4) H69/P and H69/LX4 cells were pipetted into 96-well tissue culture plates and then allowed to incubate at 37° C. for 4 h. […] The plates were incubated for 5–6 days before adding AlamarBlue to each well and returning the plates to the incubator for 5–8 h to allow colour development. The cell numbers in the plates at the end of this period were directly proportional to the absorbance measured at a wavelength of 570 nm (reference wavelength 600 nm).
A general note: The colour change of resazurin is a common sign of viable cells or microbes.

A further data set concerns topoisomerase II. Description: Stabilisation of cleavable complexes, topoisomerase II. Type of data set: biochemical. The following applies: range where an increase in cleavable complexes was observed relative to controls in the absence of drug. An excerpt:
(§5) Compounds were also studied for their ability to stabilize cleavable complexes in the presence of either topoisomerase I or II essentially as described previously (Finlay et al, Eur J. Cancer 32A, 708–714, 1996). Presence of cleavable complexes was indicated by an increase in the number and intensity of bands observed after electrophoresis and autoradiography. The results are expressed as the effective concentration range where an increase in cleavable complexes was observed relative to controls in the absence of drug.

Data set [3] deals with drug resistant human non-small cell lung carcinoma cell line COR-L23/R which overexpresses multidrug resistance associated protein (MRP). In words: Cytotoxicity, drug resistant COR-L23/R cell line (SRB assay). Type of data set: cell-based. The following applies: for Rf (resistance factor): IC50 in L23/R divided by IC50 in L23/P, MRP-dependant MDR; for IC50: concentration required to give 50% cell kill, 5–6 days incubation. As to the method:
as §1, §2

The test system of data set [4] is Jurkat human leukaemia cell line (JLC). In words: Cytotoxicity, Jurkat leukaemia cell line JLC. Type of data set: cell-based. Conditions: concentration required to give 50% cell kill. As to the method: (§6) The cytotoxicity of the compounds described herein was also measured using the Jurkat human leukaemia cell line (JLC) and also the amsacrine-resistant Jurkat human leukaemia cell line (JLA) and the doxorubicin-resistant Jurkat human leukaemia cell line (JLD). The cytotoxicity, as measured by the IC50 (concentration required to give 50% cell kill) in the JLA or JLD cell line divided by the cytotoxicity in the JLC cell line gives an indication of the degree to which a compound may be affected by atypical drug resistance and is termed the resistance factor (Rf) of the compound. The method used has been described previously (Finlay et al, Eur J. Cancer 32A, 708–714, 1996). Compounds were active in the range 1 nM to 5 μM.

Data set [5] relates to doxorubicin-resistant Jurkat human leukaemia cell line (JLD). Description: Cytotoxicity, doxorubicin-resistant Jurkat cell line JLD. Type of data set: cell-based. Conditions: for Rf (JLD/JLC): IC50 in JLD divided by IC50 in JLC, atypical drug resistance; for IC50: concentration required to give 50% cell kill. Here is the method: as §6
Data set [6] relates to amsacrine-resistant Jurkat human leukaemia cell line (JLA). In words: Cytotoxicity, amsacrine-resistant Jurkat cell line JLA. The format is cell-based. Conditions: for Rf (JLA/JLC): IC50 in JLA divided by IC50 in JLC, atypical drug resistance; for IC50: concentration required to give 50% cell kill. Here is the method: as §6
The test system of data set [7] is H69 parental (H69/P) human small cell lung carcinoma cell line. Description: Cytotoxicity, H69 parental cell line (AlamarBlue). The format is cell-based. The following applies: concentration required to give 50% cell kill, 5–6 days incubation. Here is the method: as §3, §4
In another data set the target is T1, topoisomerase I (Homo sapiens, UniProt P11387).
T1 sequence (P11387 1-765): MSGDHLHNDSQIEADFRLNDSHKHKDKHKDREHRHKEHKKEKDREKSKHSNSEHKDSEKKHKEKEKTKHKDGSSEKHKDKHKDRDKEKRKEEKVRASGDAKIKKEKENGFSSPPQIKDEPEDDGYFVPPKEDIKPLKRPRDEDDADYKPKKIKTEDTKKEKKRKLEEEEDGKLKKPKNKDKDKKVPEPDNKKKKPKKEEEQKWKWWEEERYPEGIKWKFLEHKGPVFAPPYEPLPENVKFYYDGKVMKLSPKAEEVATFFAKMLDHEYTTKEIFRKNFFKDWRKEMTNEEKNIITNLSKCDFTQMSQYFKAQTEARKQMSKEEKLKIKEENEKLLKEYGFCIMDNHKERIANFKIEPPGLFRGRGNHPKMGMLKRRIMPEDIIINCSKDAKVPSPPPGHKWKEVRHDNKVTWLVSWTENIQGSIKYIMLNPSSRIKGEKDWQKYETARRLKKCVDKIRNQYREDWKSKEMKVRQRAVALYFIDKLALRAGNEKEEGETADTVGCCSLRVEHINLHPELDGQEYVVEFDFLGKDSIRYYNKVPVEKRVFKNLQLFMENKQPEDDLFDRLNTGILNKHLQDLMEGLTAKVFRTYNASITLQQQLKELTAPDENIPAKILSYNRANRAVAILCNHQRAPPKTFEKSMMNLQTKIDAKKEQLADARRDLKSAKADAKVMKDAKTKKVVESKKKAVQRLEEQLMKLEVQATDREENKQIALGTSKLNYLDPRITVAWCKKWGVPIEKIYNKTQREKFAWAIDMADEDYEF
Description: Stabilisation of cleavable complexes, topoisomerase I. The format is biochemical. The following applies: range where an increase in cleavable complexes was observed relative to controls in the absence of drug.
Excerpt: as §5

Data set [8] can be described thus: Cytotoxicity, drug resistant COR-L23/R cell line (SRB assay). The following applies: Homo sapiens, COR-L23/R; concentration required to give 50% cell kill; 5–6 days incubation. Type of data set: cell-based, human. Here is the method: as §1, §2

Molecules are shown by their SMILES.

Take `Br.CN(C)CCNC(=O)c1cccc2nc3ccc4c(O)cccc4c3nc12` [Compound 4, 4-Hydroxy-benzo[a]phenazine-11-carboxylic acid (2-dimethylamino-ethyl)-amide: hydrobromide salt]: the concentration for half-maximal inhibition (IC50) in data set [1] came to 14.7 nM; in [2], 48 nM; in data set [3] it was 16.8 nM; in data set [4], 19 nM; in data set [5] it was 22.8 nM; in data set [6], 26.6 nM. Besides, in [7], the half-inhibitory concentration (IC50) is 35 nM. The “Rf (resistance factor)” value in [2] was determined as 1.4; in [3], 1.1. Also, the “Effective concentration range, Topoisomerase II” value in the data set on topoisomerase II was 0.1 to 3.0 µM. Moreover, the “Rf (JLD/JLC)” value in data set [5] was 1.2. In addition, the “Rf (JLA/JLC)” value in data set [6] was found to be 1.4. The “Effective concentration range, Topoisomerase I” value on topoisomerase I was 0.1 to 3.0 µM.

Turning to `COc1cccc2c1ccc1nc3cccc(C(=O)N[C@H](C)CN(C)C)c3nc12` [Compound 78, 4-Methoxy-benzo[a]phenazine-11-carboxylic acid (2-dimethylamino-1-(R)-methyl-ethyl)-amide], the IC50 in data set [1] (Homo sapiens, COR-L23) was determined as 7.6 nM; in data set [2] (Homo sapiens), 31 nM; in data set [8] it was 8.9 nM; in [4] (Homo sapiens, Jurkat), 21 nM; in data set [5] (Homo sapiens, Jurkat), 17 nM; in data set [6] (Homo sapiens, Jurkat), 14 nM. Also, the IC50 in data set [7] (Homo sapiens) stood at 24 nM. Moreover, the “Rf (resistance factor)” value in data set [2] worked out at 1.3; in data set [3], 1.2. Also, in the data set with topoisomerase II, the “Effective concentration range, Topoisomerase II” value lay in the range of 0.03 to 1.0 µM. For the same compound, the “Rf (JLD/JLC)” value in data set [5] turned out to be 0.8. The “Rf (JLA/JLC)” value in data set [6] is on record as 0.7. The “Effective concentration range, Topoisomerase I” value at topoisomerase I lay in the range of 0.03 to 1.0 µM.

Take `CN(C)CCNc1nc2cc(O)ccc2c2c1C(=O)c1ccccc1-2` [TAS-103, reference compound]: the IC50 in data set [1] was determined as 16.3 nM; in data set [2] it was 22 nM; in data set [3] it was 22 nM; in [4], 5.4 nM; in [5], 384 nM; in data set [6], 302 nM. For the same compound, in data set [7], the IC50 is 21 nM. The “Rf (resistance factor)” value turned out to be 1.1 in data set [2] and 1.3 in [3]. For the same compound, the “Effective concentration range, Topoisomerase II” value with topoisomerase II was in the range of 0.3 to 10.0 µM. Also, the “Rf (JLD/JLC)” value in data set [5] is listed as 71.1. The “Rf (JLA/JLC)” value in [6] stood at 55.9. Also, the “Effective concentration range, Topoisomerase I” value on topoisomerase I was 0.3 to 10.0 µM.

As for `COc1cccc2c1ccc1nc3cccc(C(=O)NC(CN(C)C)C(C)O)c3nc12` (centres unmarked) [Compound 84, 4-Methoxy-benzo[a]phenazine-11-carboxylic acid (1-dimethylaminomethyl-2-hydroxy-propyl)-amide], the IC50 in data set [2] (Homo sapiens) is 19 nM; in data set [4] (Homo sapiens, Jurkat), 4.4 nM; in [5] (Homo sapiens, Jurkat) it was 7.2 nM; in data set [6] (Homo sapiens, Jurkat) it was 9.8 nM; in data set [7] (Homo sapiens) it was 19 nM. In data set [2], the “Rf (resistance factor)” value worked out at 1. Further, in the data set on topoisomerase II, the “Effective concentration range, Topoisomerase II” value is 0.03 to 1.0 µM. Besides, in [5], the “Rf (JLD/JLC)” value is 1.6. Besides, in [6], the “Rf (JLA/JLC)” value worked out at 2.2. For the same compound, the “Effective concentration range, Topoisomerase I” value at topoisomerase I was in the range of 0.03 to 1.0 µM.

Take `COc1cccc2c1ccc1nc3cccc(C(=O)NCCN(C)C)c3nc12` [Compound 3, 4-Methoxy-benzo[a]phenazine-11-carboxylic acid (2-dimethylamino-ethyl)-amide]: the concentration for half-maximal inhibition (IC50) was found to be 14.4 nM in data set [1] (Homo sapiens, COR-L23); 49 nM in data set [2] (Homo sapiens); 19.9 nM in data set [8]; 27 nM in [4] (Homo sapiens, Jurkat); 24.3 nM in data set [5] (Homo sapiens, Jurkat); 21.6 nM in data set [6] (Homo sapiens, Jurkat). Besides, in data set [7] (Homo sapiens), the concentration for half-maximal inhibition (IC50) turned out to be 35 nM. Moreover, the “Rf (resistance factor)” value in data set [2] and in [3] was 1.4 in each case. Moreover, the “Effective concentration range, Topoisomerase II” value in the data set with topoisomerase II lay within 0.1 to 3.0 µM. Besides, in data set [5], the “Rf (JLD/JLC)” value is on record as 0.9. For the same compound, the “Rf (JLA/JLC)” value in data set [6] is given as 0.8. For the same compound, the “Effective concentration range, Topoisomerase I” value at topoisomerase I lay within 0.1 to 3.0 µM.
